Format in all cases: cell-based, human
For assay [1], the system named is A549 cells. As to the kind of experiment: Nuclear staining assay (Hoechst 33342/PI). The note with it: A549, 0.5 μM, 24 h; for percentage of apoptosis: Hoechst 33342; for percentage of dead cells: PI staining. The protocol: (§1) The assessment of apoptosis and dead cell counts was performed through costaining with Hoechst 33342 and propidium iodide (PI). Human NSCLCs (1 × 10^4 cells per well) were seeded in a 96-well plate, incubated at 37 °C, and exposed to all right-half RT analogs at a concentration of 0.5 μM. After treatment, the cells were rinsed with PBS and subjected to co-staining with Hoechst 33342 (10 μg/mL) and propidium iodide (PI) (0.02 μg/mL) for 30 min at 37 °C. Fluorescence microscopy (Olympus 1X51 with a DP70 digital camera, Tokyo, Japan) was utilized to observe the fragmented nuclei indicative of apoptotic cells stained with Hoechst 33342 and the positive PI staining for dead cells. Subsequently, the percentages of apoptosis and dead cells were calculated. In this experiment, RT at a concentration of 0.5 μM served as the positive control.

Assay [2] relates to H23 cells. The experiment in a line: Nuclear staining assay (Hoechst 33342/PI). The note with it: H23, 0.5 μM, 24 h; for percentage of apoptosis: Hoechst 33342; for percentage of dead cells: PI staining. The protocol: as §1
Assay [3] concerns H292 cells. As to the kind of experiment: Nuclear staining assay (Hoechst 33342/PI). The note with it: H292, 0.5 μM, 24 h; for percentage of apoptosis: Hoechst 33342; for percentage of dead cells: PI staining. As for the experimental part:
as §1

Assay [4] relates to A549 cells. As to the kind of experiment: Proliferation assay (MTT). As for the experimental part: (§2) An MTT assay was employed to evaluate the antiproliferative impact of the right-half RT analog, DH_32, over a period of three consecutive days. The human NSCLC cells lines A549, H23, and H292 were seeded at a cell density of 2 × 10^3 cells per well in a 96-well plate. The cells were exposed to low concentrations (0, 25, 50, and 100 nM) of DH_32 at various time points (0 h, 24 h, 48 h, and 72 h) and then incubated under 5% CO2 at 37 °C. Subsequently, the cell viability was assessed using an MTT assay at 0 h, 24 h, 48 h, and 72 h. The percentage of cell proliferation was determined by dividing the optical density (OD) of the cells at each time point by the OD of the non-treated control cells. In this experiment, RT served as the positive control.

The subject of assay [5] is H23 cells. As to the kind of experiment: Proliferation assay (MTT). The note with it: H23, 24 h, 25 nM. The protocol:
as §2

The subject of assay [6] is H292 cells. The experiment in a line: Proliferation assay (MTT). The conditions noted are these: H292, 24 h, 25 nM. The protocol:
as §2

For assay [7], the system named is CSC spheroids of A549, H23, and H292 cells. The experiment in a line: 3D CSC spheroid formation with immunofluorescence. The conditions noted are these: 50 nM; for levels of CD133, CD44, and OCT4 in CSC spheroids: 24 h, immunofluorescence. As for the experimental part:
A three-dimensional (3D) spheroid was employed to generate the spheroids containing CSC subpopulations from lung cancer cells. For CSC-rich population establishment, the spheroid culture assay used in this study was slightly modified from a previously described method. Lung cancer cells, specifically NSCLC cells (A549, H23, and H292), were seeded onto a 24-well ultra-low attachment plate, with approximately density of 2.5 × 10^3 cells per well in a medium with a 1% FBS and Nutristem mix. The primary spheroids were allowed to form for 7 days. Every 2 days, fresh medium with 1% FBS and Nutristem mix was replenished. On day 7 of primary spheroid culture, primary spheroids were resuspended into single cells using trypsin, and again 2.5 × 10^3 cells/well were seeded into a 24-well ultra-low attachment plate. Secondary spheroids were allowed to form for 10 days. After 10 days, the secondary spheroids were treated with 50 nM concentration DH_32 for 24 h treatment. The spheroids that had undergone treatment were retrieved through centrifugation at 1000× g for 30 s and then rinsed with PBS. The spheroids were fixed with 4% paraformaldehyde in a 50 μL PBS solution for 20 min at room temperature, and then they were made permeable by treating them with 0.1% Triton X in PBS for 5 min at room temperature. The spheroids were exposed to a mixture of 5% FBS and 2% BSA in PBS for 1 h at room temperature to prevent non-specific protein interactions. Subsequently, the spheroids were incubated with primary antibodies (CD133, CD44, and OCT4) at a 1:250 dilution in a 30 μL PBS solution containing 2.5% FBS and 1% BSA, and this incubation took place overnight at 4 °C. On the subsequent day, the spheroids were rinsed with PBS and then exposed to secondary antibodies (Alexa Fluor 594-conjugated goat anti-rabbit IgG (H+L) and Alexa Fluor 488-conjugated goat anti-mouse IgG (H+L)) at a 1:500 dilution in a 30 μL PBS solution containing 2.5% FBS and 1% BSA at room temperature for 1 h 30 min. These spheroids were subjected to staining with Hoechst 33342 (Sigma, St. Louis, MO, USA) at a concentration of 10 μg/mL for a duration of 15 min at room temperature. Subsequently, the fluorescence signals were observed using a fluorescence microscope (Olympus IX 51 with DP70; Olympus America Inc., Center Valley, PA, USA). The intensity of fluorescence was quantified using Image J software. NSCLC spheroids treated with RT at 50 nM and cisplatin at 50 nM served as the positive control.

The subject of the next assay is BEAS2B cells. As to the kind of experiment: MTT cell viability assay, normal cells. The conditions noted are these: for IC50: BEAS2B normal cells, 24 h treatment, MTT. On the technique in general: Tetrazolium dyes change colour on reduction, which living cells bring about.
Assay [8] deals with A549 cells. As to the kind of experiment: MTT cell viability assay. The conditions noted are these: A549, 24 h treatment. The protocol: (§3) The cell viability was assessed using an MTT assay, determining the half-maximal inhibitory concentration (IC50) to screen right-half RT analogs (DH_18, DH_21, DH_32, DH_35, DH_38, and DH_39). Human NSCLC cells (A549, H23, and H292) were seeded in a 96-well cell culture plate at a density of 1 × 10^4 cells per well and incubated for 24 h at 37 °C. Subsequently, the culture medium was aspirated, and a complete medium with varying concentrations (0–100 μM) of right-half RT analogs was added for 24 h. Following the removal of the compound-containing medium, an MTT reagent at a concentration of 4 mg/mL was applied and incubated for 3 h at 37 °C. The MTT reagent was replaced with 100 μL of DMSO to dissolve the formazan crystals. The measurement of the formazan product was conducted at 570 nm utilizing a microplate reader. RT served as the positive control in this experiment.

For assay [9], the system named is H23 cells. The experiment in a line: MTT cell viability assay. As for the experimental part: as §3
In assay [10] the test system is H292 cells. As to the kind of experiment: MTT cell viability assay. As for the experimental part:
as §3

The mark [11] stands for this setting: A549, 48 h, DH_32 25, 50, and 100 nM, RT 25 and 50 nM.

`CC=C(C)C(=O)OCC1c2c(c(O)c(C)c3c2OCO3)CC2C3C4=C(CC(C(C#N)N12)N3C)C(=O)C(C)=C(OC)C4=O` (stereo not shown) [RT, Renieramycin T]: the percentage of apoptosis in the assay with A549 cells [1] worked out at 24.95 ± 1.32%; in the assay with H23 cells [2] it was 33.41 ± 0.53%; in the assay on H292 cells [3], 29.63 ± 0.47%. In addition, the “percentage of dead cells” value is listed as 21.60 ± 0.99% in the assay with A549 cells [1], 31.15 ± 0.48% in the assay on H23 cells [2] and 26.31 ± 1.04% with H292 cells [3]. The proliferation rate result in the assay with A549 cells [4] (A549, 24 h, 50 and 100 nM) is given as “did not affect the proliferation”; in the assay with A549 cells [4] (setting [11]), “did not exhibit any effect”; in the assay with H23 cells [5], “did not exhibit any change in their proliferation rate”; in the assay on H292 cells [6] it was “did not exhibit any change in their proliferation rate”. For the same compound, in assay [7], the “levels of CD133, CD44, and OCT4 in CSC spheroids” value was “lesser effects”. Moreover, the concentration for half-maximal inhibition (IC50) – broadly, the point on the concentration scale where inhibition reaches its midpoint – in the assay on BEAS2B cells was 1180 ± 20 nM; in the assay on A549 cells [8] it was 5760 ± 230 nM; with H23 cells [9] (H23, 24 h treatment) it was 2930 ± 70 nM; with H292 cells [10] (H292, 24 h treatment), 1520 ± 50 nM.
Consider `COC1=C(C)C(=O)C2=C(C1=O)[C@@H]1CN(Cc3ccc4ccccc4c3)[C@@H](C#N)[C@H](C2)N1C` [DH_32, (1R,4R,5S)-9-methoxy-8,11-dimethyl-3-(naphthalen-2-ylmethyl)-7,10-dioxo-1,2,3,4,5,6,7,10-octahydro-1,5-epiminobenzo[d]azocine-4-carbonitrile], for which the results for the percentage of apoptosis in the assay on A549 cells [1], in the assay with H23 cells [2] and in the assay on H292 cells [3] were 29.33 ± 0.51%, 39.29 ± 1.88% and 34.13 ± 0.97%, respectively. The “percentage of dead cells” value is 23.38 ± 0.96% in the assay with A549 cells [1], 35.07 ± 1.67% in the assay on H23 cells [2] and 29.82 ± 1.26% in the assay on H292 cells [3]. For the same compound, the proliferation rate entry is recorded as “decreased proliferation rate” in the assay with A549 cells [4] (A549, 24 h, 50 and 100 nM); “significant reduction in cell proliferation” with A549 cells [4] (setting [11]); “substantial reduction in the proliferation rate” in the assay on H23 cells [5]; “substantial reduction in the proliferation rate” in the assay on H292 cells [6]. Moreover, in assay [7], the “size of spheroid formations” value is “decreased”. In addition, in assay [7], the “levels of CD133, CD44, and OCT4 in CSC spheroids” value is “dramatic decrease”. The entries for the “selectivity index (SI)” value with BEAS2B cells (BEAS2B cells versus A549), in the assay on BEAS2B cells (BEAS2B cells versus H23) and with BEAS2B cells (BEAS2B cells versus H292) were 1.25, 2.44 and 3.47, respectively. Moreover, the IC50 in the assay on BEAS2B cells (Homo sapiens, BEAS-2B) worked out at 5060 ± 220 nM; in the assay on A549 cells [8] (Homo sapiens), 4060 ± 240 nM; with H23 cells [9] (Homo sapiens, NCI-H23, H23, 24 h treatment), 2070 ± 110 nM; with H292 cells [10] (Homo sapiens, NCI-H292, H292, 24 h treatment), 1460 ± 60 nM.

Values taken from publication PMC10744608, “Simplified Synthesis of Renieramycin T Derivatives to Target Cancer Stem Cells via β-Catenin Proteasomal Degradation in Human Lung Cancer” (Marine Drugs, 2023).
